Data reported in patent publication US20240050428A1 (Cullgen (Shanghai), Inc., priority 2020, published 2024).
Read-outs that look alike come from different tables or passages of the source.

Legend:
[1] = system: MV4;11 cells; experiment: Cell viability assay (CellTiter-Glo) in MV4;11 cells, alone or with gilteritinib; type: cell-based; settings: MV4;11 cells, three days, CellTiter-Glo, read-out: MV4
[2] = system: MOLM-13 cells; experiment: Cell viability assay (CellTiter-Glo) in MOLM-13 cells, alone or with gilteritinib; type: cell-based; settings: MOLM-13 cells, three days, CellTiter-Glo
[3] = Homo sapiens, MV4-11, 72 h, compound alone (without gilteritinib), 11 IC50
[4] = Homo sapiens, MV4-11, 72 h, with gilteritinib 10 nM, 11 IC50 gilteritinib
[5] = Homo sapiens, MOLM-13, 72 h, compound alone (without gilteritinib), read-out: MOLM-13 IC50
[6] = Homo sapiens, MOLM-13, 72 h, with gilteritinib 20 nM, read-out: MOLM-13 IC50 gilteritinib
[7] = Homo sapiens, MV4-11, 72 h, compound with gilteritinib 10 nM, 11 IC50 gilteritinib
[8] = Homo sapiens, MOLM-13, 72 h, compound with gilteritinib 20 nM, read-out: MOLM-13 IC50 gilteritinib

Row | IC50 [1, 3] | IC50 [1, 4] | IC50 [2, 5] | IC50 [2, 6] | IC50 [1, 7] | IC50 [2, 8] | IC50 ([1]; compound with gilteritinib 10 nM, 11 IC50 gilteritinib) | IC50 ([2]; compound alone (without gilteritinib), read-out: MOLM-13 IC50) | Compound
1 | < 10 nM | < 10 nM | < 10 nM | < 10 nM |  |  |  |  | Cc1nn([C@H]2C[C@H](CCCNc3ccc4c(c3)C(=O)N(C3CCC(=O)NC3=O)C4=O)C2)cc1-c1cnc2ccc(N3CCOCC3)cc2n1 (stereo partly drawn) [GS-399]
2 | < 10 nM |  | 10 to 100 nM |  | < 10 nM | < 10 nM |  |  | O=C1CCC(N2C(=O)c3ccc(NCCCCCC(=O)N4CCC(c5cnc6ccccc6c5)CC4)cc3C2=O)C(=O)N1 (stereo not drawn) [GS-481, 2-(2,6-dioxopiperidin-3-yl)-5-((6-oxo-6-(4-(quinolin-3-yl)piperidin-1-yl)hexyl)amino)isoindoline-1,3-dione]
3 | 100 to 1000 nM | 100 to 1000 nM | > 1000 nM | 100 to 1000 nM |  |  |  |  | O=C1CCC(N2C(=O)c3ccc(NC4CCC(CCn5cc(-c6cnc7ccccc7n6)cn5)CC4)cc3C2=O)C(=O)N1 (stereo not drawn) [GS-183, 2-(2,6-Dioxopiperidin-3-yl)-5-((4-(2-(4-(quinoxalin-2-yl)-1H-pyrazol-1-yl)ethyl)cyclohexyl)amino)isoindoline-1,3-dione]
4 | < 10 nM | < 10 nM | 10 to 100 nM | < 10 nM |  |  |  |  | CN(C)c1cccc(-c2cn([C@H]3C[C@H](CNc4ccc5c(c4)C(=O)N(C4CCC(=O)NC4=O)C5=O)C3)nc2C2CC2)n1 (stereo partly drawn) [GS-259, 5-(((trans-3-(3-Cyclopropyl-4-(6-(dimethylamino)pyridin-2-yl)-1H-pyrazol-1-yl)cyclobutyl)methyl)amino)-2-(2,6-dioxopiperidin-3-yl)isoindoline-1,3-dione]
5 | 100 to 1000 nM | 10 to 100 nM | > 1000 nM | 100 to 1000 nM |  |  |  |  | O=C1CCC(N2Cc3ccc(CCCCCCC(=O)N4CCC(c5ccccn5)CC4)cc3C2=O)C(=O)N1 (stereo not drawn) [GS-111, 3-(1-Oxo-6-(7-oxo-7-(4-(pyridin-2-yl)piperidin-1-yl)heptyl)isoindolin-2-yl)piperidine-2,6-dione]
6 | < 10 nM |  | < 10 nM |  | < 10 nM | < 10 nM |  |  | O=C1CCC(N2C(=O)c3ccc(NCCCCCCn4cc(-c5cnc6ccc(N7CCOCC7)cc6n5)c(C5CC5)n4)cc3C2=O)C(=O)N1 (stereo not drawn) [GS-569, 5-((6-(3-Cyclopropyl-4-(7-morpholinoquinoxalin-2-yl)-1H-pyrazol-1-yl)hexyl)amino)-2-(2,6-dioxopiperidin-3-yl)isoindoline-1,3-dione]
7 | 100 to 1000 nM |  | 100 to 1000 nM |  | < 10 nM | 10 to 100 nM |  |  | O=C1CCC(N2C(=O)c3ccc(NCCC[C@H]4C[C@@H](n5cc(-c6cnc7cc(C8CCNCC8)ccc7n6)cn5)C4)cc3C2=O)C(=O)N1 (stereo partly drawn) [GS-429, 2-(2,6-dioxopiperidin-3-yl)-5-((3-(cis-3-(4-(6-(piperidin-4-yl)quinoxalin-2-yl)-1H-pyrazol-1-yl)cyclobutyl)propyl)amino)isoindoline-1,3-dione]
8 | 10 to 100 nM | 10 to 100 nM | 100 to 1000 nM | 10 to 100 nM |  |  |  |  | O=C1CCC(N2C(=O)c3ccc(NC[C@H]4C[C@H](n5cc(-c6ncccc6F)c(C6CC6)n5)C4)cc3C2=O)C(=O)N1 (stereo partly drawn) [GS-296, 5-(((trans-3-(3-Cyclopropyl-4-(3-fluoropyridin-2-yl)-1H-pyrazol-1-yl)cyclobutyl)methyl)amino)-2-(2,6-dioxopiperidin-3-yl)isoindoline-1,3-dione]
9 | 10 to 100 nM | 100 to 1000 nM | > 1000 nM | > 1000 nM |  |  |  |  | O=C1CCC(N2Cc3cc(NCCCC4CC(n5cc(-c6cnc7ccccc7n6)cn5)C4)ccc3C2=O)C(=O)N1 (stereo not drawn) [GS-140, 3-(1-Oxo-5-((3-(3-(4-(quinoxalin-2-yl)-1H-pyrazol-1-yl)cyclobutyl)propyl)amino)isoindolin-2-yl)piperidine-2,6-dione]
10 | 100 to 1000 nM | 100 to 1000 nM | 100 to 1000 nM | > 1000 nM |  |  |  |  | O=C1CCC(N2C(=O)c3ccc(NCCC[C@H]4C[C@H](n5cc(-c6ccccc6)cn5)C4)cc3C2=O)C(=O)N1 (stereo partly drawn) [GS-232, 2-(2,6-Dioxopiperidin-3-yl)-5-((3-(trans-3-(4-phenyl-1H-pyrazol-1-yl)cyclobutyl)propyl)amino)isoindoline-1,3-dione]
11 | > 1000 nM | 100 to 1000 nM | > 1000 nM | > 1000 nM |  |  |  |  | O=C1CCC(N2C(=O)c3ccc(NCC4CC(n5cc(-c6cnc7cccc(N8CCOCC8)c7n6)cn5)C4)cc3C2=O)C(=O)N1 (stereo not drawn) [GS-392, 2-(2,6-Dioxopiperidin-3-yl)-5-(((3-(4-(8-morpholinoquinoxalin-2-yl)-1H-pyrazol-1-yl)cyclobutyl)methyl)amino)isoindoline-1,3-dione]
12 | 100 to 1000 nM | 10 to 100 nM | > 1000 nM | 10 to 100 nM |  |  |  |  | O=C1CCC(N2C(=O)c3ccc(NCCC[C@H]4C[C@H](n5cc(-c6ccnc(N7CCOCC7)n6)cn5)C4)cc3C2=O)C(=O)N1 (stereo partly drawn) [GS-239, 2-(2,6-Dioxopiperidin-3-yl)-5-((3-(trans-3-(4-(2-morpholinopyrimidin-4-yl)-1H-pyrazol-1-yl)cyclobutyl)propyl)amino)isoindoline-1,3-dione]
13 |  |  |  |  |  |  | < 10 nM | 100 to 1000 nM | O=C1CCC(N2C(=O)c3ccc(NCCC[C@H]4C[C@H](n5cc(-c6cnc7ccc(N8CCN(CC(F)(F)F)CC8)cc7n6)cn5)C4)cc3C2=O)C(=O)N1 (stereo partly drawn) [GS-593, 2-(2,6-Dioxopiperidin-3-yl)-5-((3-(trans-3-(4-(7-(4-(2,2,2-trifluoroethyl)piperazin-1-yl)quinoxalin-2-yl)-1H-pyrazol-1-yl)cyclobutyl)propyl)amino)isoindoline-1,3-dione]
14 | > 1000 nM |  | > 1000 nM |  | > 1000 nM | 100 to 1000 nM |  |  | O=C1CCC(N2C(=O)c3ccc(NCCCC4CC(n5cc(N6CCOCC6)cn5)C4)cc3C2=O)C(=O)N1 (stereo not drawn) [GS-437, 2-(2,6-dioxopiperidin-3-yl)-5-((3-(3-(4-morpholino-1H-pyrazol-1-yl)cyclobutyl)propyl)amino)isoindoline-1,3-dione]
15 | > 1000 nM |  | > 1000 nM |  | > 1000 nM | > 1000 nM |  |  | O=C1CCC(N2C(=O)c3ccc(NC[C@H]4C[C@H](n5cc(N6CCNCC6)c(C6CC6)n5)C4)cc3C2=O)C(=O)N1 (stereo partly drawn) [GS-455, 5-(((trans-3-(3-cyclopropyl-4-(piperazin-1-yl)-1H-pyrazol-1-yl)cyclobutyl)methyl)amino)-2-(2,6-dioxopiperidin-3-yl)isoindoline-1,3-dione]
16 | 10 to 100 nM |  | 10 to 100 nM |  | < 10 nM | < 10 nM |  |  | CN1CCC(c2cccc3nc(-c4cnn([C@H]5C[C@H](CCCNc6ccc7c(c6)C(=O)N(C6CCC(=O)NC6=O)C7=O)C5)c4)cnc23)CC1 (stereo partly drawn) [GS-426, 2-(2,6-dioxopiperidin-3-yl)-5-((3-(trans-3-(4-(5-(1-methylpiperidin-4-yl)quinoxalin-2-yl)-1H-pyrazol-1-yl)cyclobutyl)propyl)amino)isoindoline-1,3-dione]
17 | 100 to 1000 nM |  | > 1000 nM |  | 100 to 1000 nM | 10 to 100 nM |  |  | O=C1CCC(N2C(=O)c3ccc(NCCCCCCn4nccc4-c4cnc5ccccc5n4)cc3C2=O)C(=O)N1 (stereo not drawn) [GS-537, 2-(2,6-dioxopiperidin-3-yl)-5-((6-(5-(quinoxalin-2-yl)-1H-pyrazol-1-yl)hexyl)amino)isoindoline-1,3-dione]
